What was measured:
[1] = Uric acid-lowering test in monkeys having hyperuricemia (UA subcutaneous injection); type: in vivo, cynomolgus monkeys; conditions: cynomolgus monkey, serum, sc; uric acid (UA) by subcutaneous injection at the nape, cynomolgus monkeys from the model group; read-out: half-life (t½z) (converted)
Experimental: The experiment was conducted by reference to Komoriya K, Osada Y, Hasegawa M, Horiuchi H, Kondo S, Couch R C, Griffin T B. Hypouricemic effect of allopurinol and the novel xanthine oxidase inhibitor TEI-6720 in chimpanzees. Eur J Pharmacol. 1993 Dec. 21; 250(3): 455-60.
In the Model group, three non-naïve cynomolgus monkeys (1 #, 2 # and 3 #) were administered with UA by subcutaneous injection at the nape. Blood was collected from the vein before UA administration and 0.5 h, 1 h, 2 h, 4 h, 6 h and 24 h after UA administration. The blood was left still at room temperature. The serum was collected by centrifugation. The content of serum uric acid was measured.
In the Administration group, three non-naïve cynomolgus monkeys (1 #, 2 # and 3 #) were administered with the test sample by intravenous injection after 2 weeks of clearance. Blood was collected from the vein before administration and 2 h after administration of test sample. Then, the monkeys were administered with UA by subcutaneous injection at the nape and blood was collected from the vein 1 h, 2 h and 4 h after the UA administration. The blood was left still at room temperature. The serum was collected by centrifugation. The content of serum uric acid was measured. Reduction rate of serum uric acid in healthy monkeys administered with test sample=(average uric acid content before administration−average uric acid content 2 h after administration of test sample)/average uric acid content before administration*100%, Reduction rate of serum uric acid in monkeys having hyperuricemia after administration of test sample=(uric acid content after UA administration in the model group−uric acid content after UA administration in the administration group)/uric acid content in the model group*(100%).
That was, the samples were collected before administration, 2 h after administration of test sample and 1 h, 2 h and 4 h after UA administration for determination of the serum uric acid content. The contents of serum uric acid in the model group and the administration group and the reduction rates of serum uric acid were shown in the following Tables 3-1, 3-2 and 3-3, respectively.

[2] = Pharmacokinetics experiment in cynomolgus monkeys, intravenous; type: in vivo, cynomolgus monkeys (Macaca fascicularis); conditions: 5 mg/kg, Mean ± SD, n = 3
Experimental: Three non-naïve cynomolgus monkeys were administered with test compounds A, B and D at a dose of 5 mg/kg by intravenous injection and with test compound C at a dose of 3 mg/kg by intravenous injection, with one compound being tested at a time. Blood was collected from the vein before administration and 1 h, 3 h, 6 h and 24 h after administration, and plasma was isolated. The plasma was analyzed by a 4000 Q Trap LC-MS/MS instrument. The concentrations of the test samples were output by Analyst 1.6.1 from AB Company. The parameters ( ) such as the mean, standard deviation, and coefficient of variation were calculated using Microsoft Excel, wherein the values directly output by Analyst 1.6.1 requires no calculation. PK parameters were calculated using Pharsight Phoenix 6.2 software (NCA model).

serum uric acid = assay: Uric acid-lowering experiment in cynomolgus monkeys; type: in vivo; design: Reduction rate of serum uric acid: concentration or dose not given beside the values; conditions: for Reduction rate of serum uric acid / Content of serum uric acid: intravenous; for Reduction rate of serum uric acid: 3 h after administration vs before administration; for Content of serum uric acid: 3 h after administration
Experimental: The experiment was done by reference to Komoriya K, Osada Y, Hasegawa M, Horiuchi H, Kondo S, Couch R C, Griffin T B. Hypouricemic effect of allopurinol and the novel xanthine oxidase inhibitor TEI-6720 in chimpanzees. Eur J Pharmacol. 1993 Dec. 21; 250(3): 455-60.
Each compound was tested in three non-naïve cynomolgus monkeys (1 #, 2 # and 3 #), wherein the monkeys were administered with test samples by intravenous injection. Blood was collected from the vein before administration and 1 h, 3 h, 6 h and 24 h after administration. The blood was left still at room temperature. The serum was collected by centrifugation. The content of uric acid in serum was measured. Reduction rate of serum uric acid=(average uric acid content before administration−average uric acid content after administration)/average uric acid content before administration*100%.

[3] = tested on: MSU-induced gouty arthritis; assay: MSU-induced gouty arthritis, toe volume; type: in vivo, Male Wistar rats; conditions: for Inhibition of toe volume change (%): vs model group; for effect on increase of the toe volumes in the test rats (in words): compared with the model group
Experimental: The experiment was done by reference to Hsin-Pai Lee, Shi-Ying Huang, Yen-You Lin. Soft Coral-Derived Lemnalol Alleviates Monosodium Urate-Induced Gouty Arthritis in Rats by Inhibiting Leukocyte Infiltration and iNOS, COX-2 and c-Fos Protein Expression. […] 2013, 11, 99-113.
One gram of uric acid was weighed, introduced into 200 mL of boiling water and heated. Then, NaOH (2 mol/L) was added until pH reached 9. The solution became clear, and was cooled at room temperature and then left still overnight. MSU was obtained after filtration, which was dried at 60° C. for 24 h and then sterilized at a high temperature of 180° C.
The toe volumes of the rats were measured one day prior to the experiment. The rats were administered with the solvent by subcutaneous injection in the model group at a dose of 5 mL/kg, while the rats were administered with test samples by subcutaneous injection in administration groups at a dose of 5 mg/kg. Rats were anesthetized immediately after administration and were injected with 0.09 mL of MSU suspension into the joint cavity of the left ankle. The volume of the left toe was measured in rats 9 h after the injection of MSU into the ankle joint cavity.
The toe volumes of the rats were measured one day prior to the experiment. The rats were administered with the solvent by subcutaneous injection in the model group at a dose of 15 mL/kg, while the rats were administered with test samples by subcutaneous injection in administration groups at a dose of 15 mg/kg or 10 mg/kg. Rats were anesthetized immediately after administration and were injected with 0.09 mL of MSU suspension into the joint cavity of the left ankle. The volume of the left toe was measured in rats 9 h after the injection of MSU into the ankle joint cavity.
The toe volumes of rats were measured one day prior to the experiment. The rats were administered with the solvent by subcutaneous injection in the model group at a dose of 15 mL/kg, while the rats were administered with the test sample by subcutaneous injection in administration group at a dose of 15 mg/kg. Rats were anesthetized immediately after administration and were injected with 0.09 mL of MSU suspension into the joint cavity of the left ankle. The volume of the left toe in each rat was measured 9 h after the injection of MSU into the ankle joint cavity.

[4] = tested on: MSU-induced gouty arthritis; assay: Pain value in rats with gouty arthritis (electronic Von Frey pain threshold detector); type: in vivo, Male Wistar rats
Experimental: The rats with gouty arthritis were placed in a metabolic cage, and the palm center of the left foot of each rat was irritated with an electronic Von Frey pain threshold detector. The maximum stress value was recorded when each rat withdrew its foot, and the value was the pain value of that rat.

[5] = biological target: T1, human urate transporter 1 (hURAT1) (Homo sapiens, UniProt Q96S37); assay: Uptake of 14C-labeled uric acid in hURAT1 transfected cells; type: cell-based; conditions: 14C uric acid uptake, hURAT1-transfected HEK-293T cells, 5 min at 37° C.; read-out: IC50 (μM), inhibition of hURAT1 activity
T1 construct: expressed in transfected cells; host or cells: HEK-293T
T1 sequence (Q96S37 1-553): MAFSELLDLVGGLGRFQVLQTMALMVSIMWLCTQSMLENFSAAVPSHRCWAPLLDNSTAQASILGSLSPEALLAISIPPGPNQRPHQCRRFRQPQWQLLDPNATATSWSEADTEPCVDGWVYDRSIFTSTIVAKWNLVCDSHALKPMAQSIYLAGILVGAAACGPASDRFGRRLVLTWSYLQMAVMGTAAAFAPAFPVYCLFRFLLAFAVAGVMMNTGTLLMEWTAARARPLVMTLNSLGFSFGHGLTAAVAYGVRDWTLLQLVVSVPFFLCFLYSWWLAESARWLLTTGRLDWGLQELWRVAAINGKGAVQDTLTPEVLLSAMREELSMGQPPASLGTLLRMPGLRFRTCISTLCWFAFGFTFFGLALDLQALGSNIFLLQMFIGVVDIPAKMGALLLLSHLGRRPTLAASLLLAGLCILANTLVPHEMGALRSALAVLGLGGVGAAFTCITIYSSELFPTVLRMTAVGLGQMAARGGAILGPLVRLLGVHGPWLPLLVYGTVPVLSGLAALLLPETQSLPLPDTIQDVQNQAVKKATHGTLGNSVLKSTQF
Experimental: The compounds were prepared into the stock solutions (5 mM) with dimethyl sulfoxide (DMSO). This experiment involved 8 concentrations in total. The final concentrations were 5000 nM, 1250 nM, 312.5 nM, 78.1 nM, 19.5 nM, 4.9 nM, 1.2 nM and 0.3 nM, respectively.
Preparation of buffers: chlorine-free HBSS buffer (125 mM sodium gluconate, 4.8 mM potassium gluconate, 1.3 mM calcium gluconate, 1.2 mM KH2PO4, 1.2 mM MgSO4, 5.6 mM glucose, 25 mM 4-hydroxyethylpiperazine ethanesulfonic acid (HEPES) (pH 7.4)); lysis buffer (100 mM NaOH)
Transfected cells stably expressing human urate transporter 1 (hURAT1) were obtained by: placing human embryonic kidney cells (HEK-293T) in a cell culture plate containing complete medium, incubating the cells for 24 h at 37° C. in 5% CO2, rinsing the cells with phosphate buffered saline (PBS) followed by trypsin digestion to prepare a suspension containing single cells; placing 8×10^6 cells a cell culture plate, adding dropwise TransIT-293 Reagent:DNA complexes (1.5 ml of Opti-MEM I Reduced-Serum Medium, 15 g of plasmid DNA, and 45 μL of TransIT-293 Reagent were mixed uniformly and then incubated at room temperature for 30 min) to different areas of the cell culture plate, gently shaking the cell culture plate to homogeneously distribute the TransIT-293 Reagent:DNA complexes, and incubating the cells for 48 h at 37° C. in 5% CO2.
Uptake of ^14C-labeled uric acid in hURAT1 transfected cells: (1) hURAT1-transfected cells were placed in a Poly-D-lysine 96-well microplate at a cell density of 6×10^4/well, and left still overnight at 37° C. in 5% CO2; (2) after the cells were placed in the Poly-D-lysine 96-well microplate for 12 h, the cells were washed for 3 times with 200 μl of pre-heated chlorine-free HBSS buffer per well, and the washing solution in the microplate was removed; (3) 50 μl of uric acid-containing [8-14C] […]

[6] = Example 6, 15 mg/kg subcutaneous, 9 h after MSU

SMILES	half-life [1]	t1/2z [2]	effect on serum uric acid levels in the test monkeys (in words) (serum uric acid; compared to the levels measured before administration)	Reduction rate of serum uric acid (serum uric acid; animal 1#)	Reduction rate of serum uric acid (serum uric acid; animal 2#)	Reduction rate of serum uric acid (serum uric acid; mean)	Content of serum uric acid (serum uric acid; animal 1#)	Content of serum uric acid (serum uric acid; animal 2#)	Content of serum uric acid (serum uric acid; mean)	Change of toe volume ([3]; Example 4, 5 mg/kg subcutaneous, 9 h after MSU injection into left ankle joint cavity)	Inhibition of toe volume change (%) ([3]; Example 4, 5 mg/kg subcutaneous, 9 h after MSU)	effect on increase of the toe volumes in the test rats (in words) ([3]; Example 4, 5 mg/kg)	Toe volume change [3, 6]	Inhibition of toe volume change (%) [3, 6]	effect on increase of the toe volumes in the test rats (in words) ([3]; Example 6, 15 mg/kg)	Pain value ([4]; Example 6, 15 mg/kg subcutaneous, left foot, Von Frey)	effect on pain in the test rats (in words) ([4]; Example 6, compared with the model group)	IC50 [5]
O=c1[nH]c(=O)c2[nH]c(=O)[nH]c2[nH]1 [uric acid (UA), uric acid]	32.4 min	–	–	–	–	–	–	–	–	–	–	–	–	–	–	–	–	–
CCCCn1c(=O)[nH]c(=O)c2[nH]c(Cl)nc21 [Compound B, 8-chloro-3-butyl-3,7-dihydro-1H-purine-2,6-dione]	–	163 ± 21 min	significantly reduce	17.5%	9.2%	14.1%	69.1 µmol/L	52.3 µmol/L	60.7 µmol/L	0.349 mL	30.8%	significantly inhibit	0.229 mL	49.1%	significantly inhibit	37.2 g	significantly reduce	3.02 µM
